From patent publication US20070208052A1, “Aryloxy and arylalkyleneoxy substituted thiazoloquinolines and thiazolonaphthyridines” (priority 2004, published 2007)

For `CCCc1nc2c(N)nc3cc(OCc4ccccc4)ccc3c2s1` [Example 1, 7-Benzyloxy-2-propylthiazolo[4,5-c]quinolin-4-amine], the melting point was 175 to 178 °C. With `CCCc1nc2c(N)nc3cc(OCc4ccc(F)cc4)ccc3c2s1` [Example 2, 7-(4-Fluorobenzyloxy)-2-propylthiazolo[4,5-c]quinolin-4-amine] the melting point was 189 to 192 °C. For `CCCc1nc2c(N)nc3cc(OCCc4ccc(F)cc4)ccc3c2s1` [Example 3, 7-[2-(4-Fluorophenyl)ethoxy]-2-propylthiazolo[4,5-c]quinolin-4-amine], the melting point was 145 to 148 °C. `CCCc1nc2c(N)nc3cc(OCCOCc4ccccc4)ccc3c2s1` [Example 4, 7-[2-(Benzyloxy)ethoxy]-2-propylthiazolo[4,5-c]quinolin-4-amine] gave a melting point of 142 to 145 °C. Compound `CCCc1nc2c(N)nc3cc(OCc4ccoc4)ccc3c2s1` [Example 5, 7-(Furan-3-ylmethyloxy)-2-propylthiazolo[4,5-c]quinolin-4-amine] has a melting point of 170 to 171 °C. `CCc1nc2c(N)nc3cc(OCc4ccccc4)ccc3c2s1` [Example 29, 7-Benzyloxy-2-ethylthiazolo[4,5-c]quinolin-4-amine] gave a melting point of 208 to 209 °C. For `CCc1nc2c(N)nc3cc(OCCCc4cccnc4)ccc3c2s1` [Example 30, 2-Ethyl-7-[3-(pyridin-3-yl)propoxy]thiazolo[4,5-c]quinolin-4-amine], the melting point was 172 to 173 °C. Work on `CCCc1nc2c(N)nc3cc(OCc4cscn4)ccc3c2s1` [Example 31, 2-Propyl-7-[(thiazol-4-yl)methoxy]thiazolo[4,5-c]quinolin-4-amine] yielded a melting point of 218 to 220 °C. `CCCc1nc2c(N)nc3cc(OCc4cccnc4)ccc3c2s1` [Example 32, 2-Propyl-7-[(pyridin-3-yl)methoxy]thiazolo[4,5-c]quinolin-4-amine] showed a melting point of 167 to 169 °C. For `CCCc1nc2c(N)nc3cc(OCCn4cccc4)ccc3c2s1` [Example 33, 2-Propyl-7-[2-(pyrrol-1-yl)ethoxy]thiazolo[4,5-c]quinolin-4-amine], the melting point was 158 to 160 °C. `CCCc1nc2c(N)nc3cc(OCCCn4cccc4)ccc3c2s1` [Example 34, 2-Propyl-7-[3-(pyrrol-1-yl)propoxy]thiazolo[4,5-c]quinolin-4-amine] showed a melting point of 152 to 154 °C. `CCCc1nc2c(N)nc3cc(OCc4c(C)noc4C)ccc3c2s1` [Example 35, 7-[(3,5-Dimethylisoxazol-4-yl)methoxy]-2-propylthiazolo[4,5-c]quinolin-4-amine] showed a melting point of 178 to 180 °C. Compound `CCc1nc2c(N)nc3cc(OCc4ccc(C(F)(F)F)o4)ccc3c2s1` [Example 36, 2-Ethyl-7-{[5-(trifluoromethyl)furan-2-yl]methoxy} thiazolo[4,5-c]quinolin-4-amine] has a melting point of 152 to 154 °C. With `CCc1nc2c(N)nc3cc(OCc4ccc(S(=O)(=O)NCCc5cc6ccccc6[nH]5)cc4)ccc3c2s1` [Example 37, 4-{[(4-Amino-2-ethylthiazolo[4,5-c]quinolin-7-yl)oxy]methyl}-N-[2-(1H-indol-2-yl)ethyl]benzenesulfonamide] the melting point was 100 to 101 °C. `CCc1nc2c(N)nc3cc(OCc4cccc(Cl)n4)ccc3c2s1` [Example 38, 7-[(6-Chloropyridin-2-yl)methoxy]-2-ethylthiazolo[4,5-c]quinolin-4-amine] gave a melting point of 229 to 230 °C. Work on `CCc1nc2c(N)nc3cc(OCCc4c(C)n[nH]c4C)ccc3c2s1` [Example 39, 7-[2-(3,5-Dimethyl-1H-pyrazol-4-yl)ethoxy]-2-ethylthiazolo[4,5-c]quinolin-4-amine] yielded a melting point of 195 to 197 °C. Work on `CCc1nc2c(N)nc3cc(OCCCn4cc(CO)nn4)ccc3c2s1` [Example 40, (1-{[3-(4-Amino-2-ethylthiazolo[4,5-c]quinolin-7-yl)oxy]propyl}-1H-[1,2,3]triazol-4-yl)methanol] yielded a melting point of 194 to 197 °C. In the case of `CCc1nc2c(N)nc3cc(OCc4nc5ccccc5s4)ccc3c2s1` [Example 41, 7-[(1,3-Benzothiazol-2-yl)methoxy]-2-ethylthiazolo[4,5-c]quinolin-4-amine], the melting point is reported as 211 to 212 °C. With `CCc1nc2c(N)nc3cc(OCc4ccc(C(=O)OC)o4)ccc3c2s1` [Example 42, Methyl 5-{[(4-amino-2-ethylthiazolo[4,5-c]quinolin-7-yl)oxy]methyl}-2-furoate] the melting point was 184 to 186 °C. In the case of `CCc1nc2c(N)nc3cc(OCc4cccc(CO)n4)ccc3c2s1` [Example 43], the melting point is reported as 186 to 187 °C. Compound `CCc1nc2c(N)nc3cc(Oc4ccc(C(=O)OC)cn4)ccc3c2s1` [Example 44, Methyl 6-[(4-amino-2-ethylthiazolo[4,5-c]quinolin-7-yl)oxy]nicotinate] has a melting point of 213 to 214 °C. In the case of `CCc1nc2c(N)nc3cc(OCCc4c[nH]c5ccccc45)ccc3c2s1` [Example 45, 2-ethyl-7-[2-(1H-indol-3-yl)ethoxy]thiazolo[4,5-c]quinolin-4-amine], the melting point is reported as 218 to 220 °C.
